Data reported in patent publication US9695155B2, “Herbicidal substituted pyrimidinyloxy benzene compounds” (E. I. DU PONT DE NEMOURS AND COMPANY, priority 2013, dated 2017).

Experiments:
corn [1] = assay: Test A preemergence; assay type: in vivo, Zea mays; conditions: Zea mays, pre-emergence, 240 h, read-out: Corn plant response rating
Method in brief: (§1)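 Pre- and postemergence greenhouse screen. Soil: loam + sand. Spray carrier: solvent mixture, non-phytotoxic, with surfactant. Post timing at 1–2 leaves, height 2–10 cm. Readout: visual injury on a 0–100 scale roughly 10 days after application, untreated plants as reference.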

pigweed [2] = assay: Test C postemergence; assay type: in vivo, Amaranthus retroflexus
Method in brief: (§2)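 Injury was assessed visually against controls 13 to 15 days after application, with 0 meaning no effect and 100 full control; missing entries are shown as a dash. Preemergence sprays hit seeded loam–sand soil, postemergence sprays hit 1- to 4-leaf plants.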

barnyardgrass [3] = assay: Test A postemergence; assay type: in vivo, Echinochloa crus-galli
Method in brief: as §1

giant foxtail = assay: Test A postemergence; assay type: in vivo, Setaria faberii
Method in brief: as §1

kochia = assay: Test C postemergence; assay type: in vivo, Kochia scoparia
Method in brief: as §2

galium = assay: Test C postemergence; assay type: in vivo, Galium aparine
Method in brief: as §2

wheat [4] = assay: Test A preemergence; assay type: in vivo, Triticum aestivum; conditions: Triticum aestivum, pre-emergence, 240 h, read-out: Wheat plant response rating
Method in brief: as §1

rice = assay: Test B flooded paddy test; assay type: in vivo, Oryza sativa; conditions: Flood, 250 g ai/ha, 0 to 100 scale where 0 is no effect and 100 is complete control
Method in brief: (§3)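 Scores from 0 (no effect) to 100 (complete control) are visual comparisons with controls, taken 13 to 15 days after compound was applied into floodwater 3 cm deep around 2-leaf plants.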

corn [5] = assay: Test A postemergence; assay type: in vivo, Zea mays
Method in brief: as §1

barnyardgrass [6] = assay: Test A preemergence; assay type: in vivo, Echinochloa crus-galli
Method in brief: as §1

wheat [7] = assay: Test A postemergence; assay type: in vivo, Triticum aestivum
Method in brief: as §1

sedge, umbrella = assay: Test B flooded paddy test; assay type: in vivo, Cyperus difformis; conditions: Flood, 250 g ai/ha, 0 to 100 scale where 0 is no effect and 100 is complete control
Method in brief: as §3

velvetleaf = assay: Test C postemergence; assay type: in vivo, Abutilon theophrasti
Method in brief: as §2

pigweed [8] = assay: Test A preemergence; assay type: in vivo, Amaranthus retroflexus
Method in brief: as §1

pigweed [9] = assay: Test A postemergence; assay type: in vivo, Amaranthus retroflexus
Method in brief: as §1

Heteranthera limosa = assay: Test B flooded paddy test; assay type: in vivo; conditions: Flood, 250 g ai/ha, 0 to 100 scale where 0 is no effect and 100 is complete control
Method in brief: as §3

barnyardgrass [10] = assay: Test C postemergence; assay type: in vivo, Echinochloa crus-galli
Method in brief: as §2

[11] = 125 g ai/ha, 0 to 100 scale where 0 is no effect and 100 is complete control
[12] = 500 g ai/ha, 0 to 100 scale, 0 no effect, 100 complete control, approx. 10 days
[13] = 16 g ai/ha, postemergence, 0 is no effect, 100 is complete control
[14] = 31 g ai/ha, postemergence, visual rating, scale 0 to 100 (0 no effect, 100 complete control), 13 to 15 days
[15] = 125 g ai/ha, postemergence, visual rating, scale 0 to 100 (0 no effect, 100 complete control)
[16] = Postemergence, 62 g ai/ha, scale 0 to 100 (0 no effect, 100 complete control), 13 to 15 days
[17] = 125 g ai/ha, 0 to 100 scale, 0 no effect, 100 complete control
[18] = 500 g ai/ha, 0 to 100 scale where 0 is no effect and 100 is complete control

## Clc1cnn(-c2ccccc2Oc2ncc(Br)cn2)c1 [Compound 5, 5-bromo-2-[2-(4-chloro-1H-pyrazol-1-yl)phenoxy]pyrimidine]
Corn [1]; [11]
  plant injury at 125 g/ha: 0%
Corn [1]; [12]
  plant injury at 500 g/ha: 0%
Pigweed [2]; Amaranthus retroflexus, post-emergence, 125 g ai/ha, postemergence, read-out: Plant response rating (0 to 100), Pigweed
  pest or weed control at 125 g/ha: 100%
Pigweed [2]; Amaranthus retroflexus, post-emergence, 250 g ai/ha, postemergence, read-out: Plant response rating (0 to 100), Pigweed
  pest or weed control at 250 g/ha: 100%
Pigweed [2]; Amaranthus retroflexus, post-emergence, Postemergence, 31 g ai/ha, scale 0 to 100 (0 no effect, 100 complete control), 13 to 15 days, read-out: Plant response rating, Pigweed
  pest or weed control at 31 g/ha: 98%
Pigweed [2]; Amaranthus retroflexus, post-emergence, Postemergence, 62 g ai/ha, scale 0 to 100 (0 no effect, 100 complete control), read-out: Plant response rating, Pigweed
  pest or weed control at 62 g/ha: 98%
Barnyardgrass [3]; Echinochloa crus-galli, post-emergence, 240 h, 125 g ai/ha, 0 to 100 scale where 0 is no effect and 100 is complete control, read-out: Plant response rating, Barnyardgrass
  pest or weed control at 125 g/ha: 10%
Barnyardgrass [3]; Echinochloa crus-galli, post-emergence, 240 h, 500 g ai/ha, 0 to 100 scale, 0 no effect, 100 complete control, read-out: Plant response rating Barnyardgrass
  pest or weed control at 500 g/ha: 60%
Giant foxtail; Setaria faberi, post-emergence, 240 h, 125 g ai/ha, 0 to 100 scale where 0 is no effect and 100 is complete control, read-out: Plant response rating, Foxtail, Giant
  pest or weed control at 125 g/ha: 40%
Giant foxtail; Setaria faberi, post-emergence, 240 h, 500 g ai/ha, 0 to 100 scale, 0 no effect, 100 complete control, read-out: Plant response rating Foxtail, Giant
  pest or weed control at 500 g/ha: 100%
kochia; Bassia scoparia, post-emergence, 125 g ai/ha, postemergence, read-out: Plant response rating (0 to 100), Kochia
  pest or weed control at 125 g/ha: 70%
kochia; Bassia scoparia, post-emergence, 250 g ai/ha, postemergence, read-out: Plant response rating (0 to 100), Kochia
  pest or weed control at 250 g/ha: 100%
kochia; Bassia scoparia, post-emergence, Postemergence, 31 g ai/ha, scale 0 to 100 (0 no effect, 100 complete control), 13 to 15 days, read-out: Plant response rating, Kochia
  pest or weed control at 31 g/ha: 20%
kochia; Bassia scoparia, post-emergence, Postemergence, 62 g ai/ha, scale 0 to 100 (0 no effect, 100 complete control), read-out: Plant response rating, Kochia
  pest or weed control at 62 g/ha: 55%
galium; Galium, post-emergence, 125 g ai/ha, postemergence, read-out: Plant response rating (0 to 100), Galium
  pest or weed control at 125 g/ha: 80%
galium; Galium, post-emergence, 250 g ai/ha, postemergence, read-out: Plant response rating (0 to 100), Galium
  pest or weed control at 250 g/ha: 95%
galium; Galium, post-emergence, Postemergence, 31 g ai/ha, scale 0 to 100 (0 no effect, 100 complete control), 13 to 15 days, read-out: Plant response rating, Galium
  pest or weed control at 31 g/ha: 55%
galium; Galium, post-emergence, Postemergence, 62 g ai/ha, scale 0 to 100 (0 no effect, 100 complete control), read-out: Plant response rating, Galium
  pest or weed control at 62 g/ha: 70%
Wheat [4]; [11]
  plant injury at 125 g/ha: 0%
Wheat [4]; [12]
  plant injury at 500 g/ha: 20%
rice; Oryza sativa, read-out: Plant response rating, Rice
  plant injury at 250 g/ha: 10%
Corn [5]; Zea mays, post-emergence, 240 h, 125 g ai/ha, 0 to 100 scale where 0 is no effect and 100 is complete control
  Corn plant response rating (crop injury, 0 = no effect, 100 = complete kill) at 125 g/ha: 0%
Corn [5]; Zea mays, post-emergence, 240 h, 500 g ai/ha, 0 to 100 scale, 0 no effect, 100 complete control, read-out: Plant response rating Corn
  plant injury at 500 g/ha: 30%
Barnyardgrass [6]; Echinochloa crus-galli, pre-emergence, 240 h, 125 g ai/ha, 0 to 100 scale where 0 is no effect and 100 is complete control, read-out: Barnyardgrass plant response rating
  pest or weed control at 125 g/ha: 10%
Barnyardgrass [6]; Echinochloa crus-galli, pre-emergence, 240 h, 500 g ai/ha, 0 to 100 scale, 0 no effect, 100 complete control, approx. 10 days, read-out: Barnyardgrass plant response rating
  pest or weed control at 500 g/ha: 80%
Wheat [7]; Triticum aestivum, post-emergence, 240 h, 125 g ai/ha, 0 to 100 scale where 0 is no effect and 100 is complete control, read-out: Plant response rating, Wheat
  plant injury at 125 g/ha: 0%
Wheat [7]; Triticum aestivum, post-emergence, 240 h, 500 g ai/ha, 0 to 100 scale, 0 no effect, 100 complete control, read-out: Plant response rating Wheat
  plant injury at 500 g/ha: 40%
sedge, umbrella; Cyperus difformis, read-out: Plant response rating, Sedge, Umbrella
  pest or weed control at 250 g/ha: 50%
velvetleaf; Abutilon theophrasti, post-emergence, 125 g ai/ha, postemergence, read-out: Plant response rating (0 to 100), Velvetleaf
  pest or weed control at 125 g/ha: 80%
velvetleaf; Abutilon theophrasti, post-emergence, 250 g ai/ha, postemergence, read-out: Plant response rating (0 to 100), Velvetleaf
  pest or weed control at 250 g/ha: 98%
velvetleaf; Abutilon theophrasti, post-emergence, Postemergence, 31 g ai/ha, scale 0 to 100 (0 no effect, 100 complete control), 13 to 15 days, read-out: Plant response rating, Velvetleaf
  pest or weed control at 31 g/ha: 45%
velvetleaf; Abutilon theophrasti, post-emergence, Postemergence, 62 g ai/ha, scale 0 to 100 (0 no effect, 100 complete control), read-out: Plant response rating, Velvetleaf
  pest or weed control at 62 g/ha: 55%
Pigweed [8]; Amaranthus retroflexus, pre-emergence, 240 h, 125 g ai/ha, 0 to 100 scale where 0 is no effect and 100 is complete control, read-out: Pigweed plant response rating
  pest or weed control at 125 g/ha: 100%
Pigweed [8]; Amaranthus retroflexus, pre-emergence, 240 h, 500 g ai/ha, 0 to 100 scale, 0 no effect, 100 complete control, approx. 10 days, read-out: Pigweed plant response rating
  pest or weed control at 500 g/ha: 100%
Pigweed [9]; Amaranthus retroflexus, post-emergence, 125 g ai/ha, 0 to 100 scale where 0 is no effect and 100 is complete control, read-out: Plant response rating, Pigweed
  pest or weed control at 125 g/ha: 100%
Pigweed [9]; Amaranthus retroflexus, post-emergence, 240 h, 500 g ai/ha, 0 to 100 scale, 0 no effect, 100 complete control, read-out: Plant response rating Pigweed
  pest or weed control at 500 g/ha: 100%
Heteranthera limosa; Heteranthera limosa, read-out: Plant response rating, Ducksalad
  pest or weed control at 250 g/ha: 50%

## N#Cc1cn(-c2c(C#N)cccc2Oc2ncc(Cl)cn2)nn1 [Compound 273]
Barnyardgrass [10]; [13]
  Plant response rating (0 to 100), Barnyardgrass: 5
Barnyardgrass [10]; [14]
  Barnyardgrass plant response rating: 5
Barnyardgrass [10]; [15]
  Plant response rating, Barnyardgrass: 10
Barnyardgrass [10]; [16]
  Plant response rating, Barnyardgrass: 5
Pigweed [2]; [13]
  Plant response rating (0 to 100), Pigweed: 65
Pigweed [2]; [14]
  Pigweed plant response rating: 80
Pigweed [2]; [15]
  Plant response rating, Pigweed: 90
Pigweed [2]; [16]
  Plant response rating, Pigweed: 65
Barnyardgrass [3]; [17]
  Plant response rating, Barnyardgrass: 70
Barnyardgrass [3]; [18]
  Plant response rating, Barnyardgrass: 90
Giant foxtail; [17]
  Plant response rating, Foxtail, Giant: 70
Giant foxtail; [18]
  Plant response rating, Foxtail, Giant: 90
kochia; [13]
  Plant response rating (0 to 100), Kochia: 70
kochia; [14]
  Kochia plant response rating: 65
kochia; [15]
  Plant response rating, Kochia: 95
kochia; [16]
  Plant response rating, Kochia: 80
galium; [13]
  Plant response rating (0 to 100), Galium: 55
galium; [14]
  Galium plant response rating: 60
galium; [15]
  Plant response rating, Galium: 80
galium; [16]
  Plant response rating, Galium: 60
rice
  Plant response rating, Rice: 0
Corn [5]; [17]
  Plant response rating, Corn: 40
Corn [5]; [18]
  Plant response rating, Corn: 50
Barnyardgrass [6]; 125 g ai/ha
  Barnyardgrass plant response rating (0 to 100 scale, 0 is no effect, 100 is complete control): 70
Barnyardgrass [6]; [18]
  Barnyardgrass plant response rating: 90
Wheat [7]; [17]
  Plant response rating, Wheat: 10
Wheat [7]; [18]
  Plant response rating, Wheat: 50
sedge, umbrella
  Plant response rating, Sedge, Umbrella: 75
velvetleaf; [13]
  Plant response rating (0 to 100), Velvetleaf: 5
velvetleaf; [14]
  Velvetleaf plant response rating: 10
velvetleaf; [15]
  Plant response rating, Velvetleaf: 30
velvetleaf; [16]
  Plant response rating, Velvetleaf: 25
Pigweed [8]; 125 g ai/ha
  Pigweed plant response rating (0 to 100 scale): 100
Pigweed [8]; [18]
  Pigweed plant response rating: 100
Pigweed [9]; [17]
  Plant response rating, Pigweed: 100
Pigweed [9]; [18]
  Plant response rating, Pigweed: 100
Heteranthera limosa
  Plant response rating, Ducksalad: 75
